The subject of data set [1] is barbed end of actin filaments. Kind of data set: Pyrene-labeled actin assembly (nucleation) assay in detergent lysates of resting and thrombin-activated platelets. Type of data set: biochemical, human. The protocol: The effect of cell lysates on the rate and extent of pyrene-labeled rabbit skeletal muscle actin was determined as described previously (Hartwig, J., and P. Janmey, 1989 Biochim. Biophys. Acta. 1010:64-71). Suspensions of resting or thrombin-activated cells at concentrations of 1.4×10^8 /ml were permeabilized by the addition of 0.1 volume of 60 mM Pipes, 25 mM Hepes, 10 mM EGTA, 2 mM MgCl2, 0.75% Triton and 42 nM leupeptin, 10 mM benzamidine, and 0.123 mM aprotinin to inhibit proteases (Schliwa, J., et al., 1981 Proc. Natl. Acad. Sci. USA 80:5417-5420). 100 ul of detergent lysate was added to 190 ul of 100 mM KCl, 2 mM MgCl2, 0.5 mM ATP, 0.1 mM EGTA, 0.5 mM dithiothreitol, and 10 mM Tris, pH 7.0 and the polymerization rate assay was started by the addition of monomeric pyrene-labeled rabbit skeletal muscle actin to a final concentration of 2 uM. The relative contribution of nuclei with barbed or pointed ends in the cell lysates was determined by adding 2 uM cytochalasin B to the pyrene nucleation assay system. […] Activity not inhibited by cytochalasin B is considered pointed end assembly. […] To determine if the measured stimulation of actin assembly and its decay with time was due to the growth of pyrene-actin addition onto cellular filaments subject to depolymerization in the diluted lysate, 0.1 uM phalloidin or phallacidin was added to the cell lysates during their preparation to stabilize the filaments. […] However, we also determined that the soluble phase from cells permeabilized with detergent in the presence of EGTA contained calcium dependent nucleation activity. […] The amount of pointed end activity in these soluble extracts was determined by adding a final concentration of 2 uM cytochalasin B to the pyrene-actin assembly assay.
In reference to Table I, gel-filtered platelets were suspended to a concentration of 1.4×10^8 /ml in platelet buffer, rested for 30 minutes at 37° C., and then treated with or without 1 U/ml of thrombin for 15 s. […] Data are expressed as mean±SD, n=4.

In data set [2] the test system is pointed end actin nuclei in soluble fraction of platelet lysates. The experiment in a line: Calcium-sensitive soluble nucleation activity in supernatants of platelet lysates (pyrene-actin assembly). The format is biochemical, human. Here is the method: The effect of cell lysates on the rate and extent of pyrene-labeled rabbit skeletal muscle actin was determined as described previously (Hartwig, J., and P. Janmey, 1989 Biochim. Biophys. Acta. 1010:64-71). Suspensions of resting or thrombin-activated cells at concentrations of 1.4×10^8 /ml were permeabilized by the addition of 0.1 volume of 60 mM Pipes, 25 mM Hepes, 10 mM EGTA, 2 mM MgCl2, 0.75% Triton and 42 nM leupeptin, 10 mM benzamidine, and 0.123 mM aprotinin to inhibit proteases (Schliwa, J., et al., 1981 Proc. Natl. Acad. Sci. USA 80:5417-5420). 100 ul of detergent lysate was added to 190 ul of 100 mM KCl, 2 mM MgCl2, 0.5 mM ATP, 0.1 mM EGTA, 0.5 mM dithiothreitol, and 10 mM Tris, pH 7.0 and the polymerization rate assay was started by the addition of monomeric pyrene-labeled rabbit skeletal muscle actin to a final concentration of 2 uM. The relative contribution of nuclei with barbed or pointed ends in the cell lysates was determined by adding 2 uM cytochalasin B to the pyrene nucleation assay system. […] Activity not inhibited by cytochalasin B is considered pointed end assembly. The stability of nucleation activity in cell lysates was tested by comparing the stimulatory effect of fresh lysate on actin assembly with lysates allowed to stand for 30 s to 30 min at 37° C. before addition to the assembly assay. To determine if the measured stimulation of actin assembly and its decay with time was due to the growth of pyrene-actin addition onto cellular filaments subject to depolymerization in the diluted lysate, 0.1 uM phalloidin or phallacidin was added to the cell lysates during their preparation to stabilize the filaments. As shown in the results, all nucleation activity present in resting and activated cells was associated with the detergent-insoluble cytoskeleton. However, we also determined that the soluble phase from cells permeabilized with detergent in the presence of EGTA contained calcium dependent nucleation activity. Detergent lysates from resting and thrombin-activated cells (30 s, 1 U/ml) were centrifuged at 10,000 g for 2 min at room temperature in a microcentrifuge. The supernatant was removed and added to the pyrene-based nucleation assay in the presence of 1 mM EGTA or CaCl2. The amount of pointed end activity in these soluble extracts was determined by adding a final concentration of 2 uM cytochalasin B to the pyrene-actin assembly assay.
In reference to Table II, lysates were prepared from resting thrombin-treated cells with detergent and centrifuged in a Sorvall Microspin 12S at 13,000 rpm for 1 min. Nucleation activity remaining in the supernatant after removal of the cytoskeletal fraction was determined. […] The data are expressed as mean±SD, n=4. […]

For another data set, the system named is platelets. The experiment in a line: Nucleation activity of cytoskeletons from platelets pre-incubated with cytochalasin B (pyrene-actin assembly, Table III). To be noted: for Assembly rate (barbed end): cytochalasin washed out; for Assembly rate (barbed end) / Assembly rate (pointed end): n=4. Type of data set: cell-based, human. Here is the method: The effect of inhibiting barbed end actin assembly in thrombin-activated cells before detergent lysis on the amount of nucleation activity was determined by preincubating resting platelet suspensions with 2 uM cytochalasin B for 5 min. Because it was necessary to wash out the cytochalasin B from some of the cytoskeletons before addition of the cell lysates to the pyrene assembly assay, the cells were first attached to glass coverslips while still in the presence of cytochalasin B. This was accomplished by sedimenting 0.3 ml of cell suspension onto a 12 mm round glass coverslip for 5 min at 250 g. Individual coverslips were removed, treated with thrombin for 15 s in the presence of cytochalasin B, permeabilized with 1× PHEM-Triton buffer containing 2 uM cytochalasin B for 15 s and then washed in PHEM buffer in the presence or absence of cytochalasin B. Coverslips were then immediately assayed for their ability to promote actin filament assembly as previously described by us using glass adherent macrophage cytoskeletons (Hartwig, J., and P. Janmey, 1989 Biochim. Biophys. Acta. 1010:64-71).
In reference to Table III, resting platelets were incubated with 2 μM cytochalasin B for 5 min, then adhered by centrifugation to 12-mm round glass coverslips coated with polylysine. Cells on the coverslips were exposed to 1 U/ml of thrombin for 30 s in the presence of cytochalasin B and then permeabilized with PHEM-Triton buffer. […] There were 4.2×10^7 platelets per assay. The data are expressed as mean ± SD, n=4. The barbed end assembly rate, initial pointed end addition rate and initial barbed end addition rate were as described in Table I.

The test system of a further data set is cells in vitro. The settings on record: cited from earlier work.
In a further data set the test system is mice. To be noted: cited from earlier work.
The conditions of data set [3]: following intracellular microinjection; cited from earlier work.
Setting [4] is: Activated (thrombin), + 2 μM CB, supernatant, mean±SD, n=4.
The mark [5] stands for this setting: Activated: 2 μM cytochalasin B, 1 U/ml thrombin 30 s.
Where [6] appears, read: Activated: 2 μM cytochalasin B, then 1 U/ml thrombin 30 s.
[7] abbreviates: Resting platelets incubated with 2 μM cytochalasin B.
Setting [8] is: Resting platelets incubated with 2 μM cytochalasin B 5 min.

SMILES strings stand for the structures.

As for `C=C1C(C)C2C(Cc3ccccc3)NC(=O)C23OC(=O)C=CC(O)CCCC(C)CC=CC3C1O` (stereo not shown) [cytochalasin B], in data set [1] (2 uM cytochalasin B), the “Pyrene actin assembly onto actin filaments at the barbed end” value is on record as “completely inhibited”. In addition, in data set [1] (2 uM cytochalasin B added to assay, lysates of platelets activated with 1 U/ml thrombin), the “Stimulatory effect of lysates on pyrene-actin assembly rate” value is given as “abolished”. The “Effect on nucleation activity of lysates from resting cells” value in data set [1] (2 uM cytochalasin B added to lysates, resting platelets) is on record as “only a small effect”. Further, the “Calcium-dependent soluble actin nucleation activity” value in data set [2] (2 uM cytochalasin B, soluble fraction, thrombin-activated platelets) was “completely unaffected”. In data set [2] (setting [4]), the “Assembly Rate” value was determined as 0.55 ± 0.02 nM/s, the Pointed nuclei/platelet is given as 5,000 ± 250 and the “Subunits added to pointed ends” value is listed as 1.0 ± 0.05 ×10^10 s^-1. In addition, the “Nucleation activity after cytochalasin B treatment of resting cells” value in the data set with platelets (2 μM cytochalasin B, resting platelets) is given as “did not by itself result in nucleation activity”. In the data set with platelets (setting [5]), the Barbed nuclei/platelet stood at 380, the Pointed nuclei/platelet is 1,980, the “Subunits added to barbed ends” value worked out at 3.9e+11 s⁻¹ and the “Subunits added to pointed ends” value worked out at 9.95e+10 s⁻¹. Further, in the data set with platelets (setting [6]), the “Assembly rate (barbed end)” value came to 1.59 nM/s and the “Assembly rate (pointed end)” value was found to be 0.55 nM/s. Further, in the data set on platelets (setting [7]), the Barbed nuclei/platelet is 50, the Pointed nuclei/platelet is reported as 1,980, the “Subunits added to barbed ends” value was 2e+10 s⁻¹ and the “Subunits added to pointed ends” value was 9.95e+10 s⁻¹. In the data set on platelets (setting [8]), the “Assembly rate (barbed end)” value was 0.18 nM/s and the “Assembly rate (pointed end)” value stood at 0.55 nM/s. The “Stimulation of pyrene-actin assembly rate by thrombin-activated, cytochalasin B-treated cytoskeletons compared with resting cells incubated with cytochalasin B” value in the data set on platelets (cytochalasin present during activation, washed away before assay) was “four-fold”. In the data set on cells in vitro (2 h), the MNTC was at most 200 µM and the Non-cytotoxic concentration entry is reported as “up to 100 ug/ml”. The “Cytotoxicity on prolonged exposure” value in the data set on cells in vitro was “reversible cytotoxicity”. In the data set on mice (intraperitoneal), the 50% lethal dose (LD50) is reported as 50 mg/kg and the “Time to clearance from all tissues but liver” value was at most 24 h. Further, the “Recovery of injected cytochalasin B” value with mice (within a few minutes following injection) is listed as 35%.
In the case of `O=C(O)CN(CC(=O)O)c1ccccc1OCCOc1ccccc1N(CC(=O)O)CC(=O)O` [BAPTA, 1,2-bis(2-aminophenoxy) ethane N,N,-N',N'-tetraacetic acid], the “Binding to membranes or toxic effects” value in data set [3] is listed as “little or no”.

(Values after US5876676A, “Preservation of blood platelets” (priority 1996, dated 1999).)
